Assay results as given in patent US20230107277A1, “SUBSTITUTED PYRIDAZINE COMPOUND” (Astellas Pharma Inc., priority 2020, published 2023).
Where a name gives a salt, the structure may show the parent alone.

These compounds were tested on IL-1β Production of THP-1 (assay: Test on IL-1β production of THP-1 (LPS and ATP stimulation, ELISA)). Settings: Homo sapiens; PMA-differentiated THP-1 cells, LPS 50 ng/mL and ATP 5 mM, 2 hours.
Format: cell-based
Procedure: 50 ng/mL of PMA (phorbol myristate acetate, SIGMA, P1585) was added to THP-1 cells, and the cells were cultured at 37° C. for 2 days. […] LPS (Lipopolysaccharide, SIMGA, L2880) and ATP (Adenosine triphosphate, SIGMA, A2383) were added to final concentrations of 50 ng/mL and 5 mM, respectively, and the cells were cultured at 37° C. for 2 hours. The supernatant was collected, and the concentration of IL-1β was measured by an ELISA method (DuoSet ELISA human IL-1β, R&D Systems, DY201). […] The IC50 value was calculated by sigmoid […] model non-linear regression analysis.

IC50 [nM]	Structure (SMILES)
950	C[C@@H]1CN(C(=O)c2cc(-c3ccc(C(F)(F)F)cc3C(F)(F)F)nnc2NC[C@@H](C)O)CCO1 [Example 58]
1600	C[C@@H](O)CNc1nnc(-c2ccc(C(F)(F)F)cc2C(F)(F)F)cc1C(=O)N1CCOC[C@@H]1C [Example 57]
21	CC(=O)O[C@H](C)CNc1cc(C)c(-c2ccc(C(F)(F)F)cc2O)nn1 [Example 34]
470	Cc1cc(NCCCO)nnc1-c1ccc(C(F)(F)F)cc1 [Example 52]
980	OCCCNc1cc(-c2ccccc2)c(-c2ccc(C(F)(F)F)cc2)nn1 [Example 1, 3-({5-phenyl-6-[4-(trifluoromethyl)phenyl]pyridazin-3-yl}amino)propan-1-ol]
2500	C[C@@H]1COCCN1C(=O)c1cc(-c2ccc(C(F)(F)F)cc2C(F)(F)F)nnc1NC[C@@H](C)O [Example 56]
250	COc1ccc(-c2nnc(NC[C@@H](C)O)cc2C)c(O)c1 [Example 69]
750	C[C@@H](O)CNc1nnc(-c2ccc(C(F)(F)F)cc2O)c(C2CC2)c1C1CC1 [Example 39]
90	Cc1cc(-c2ccc(C(F)(F)F)cc2C(F)(F)F)nnc1NC[C@@H](C)O [Example 6, (2R)-1-({6-[2,4-bis(trifluoromethyl)phenyl]-4-methylpyridazin-3-yl}amino)propan-2-ol]
3500	OCCCNc1cc(-c2ccccc2)c(-c2ccc(C(F)(F)F)cc2C(F)(F)F)nn1 [Example 54]
560	CC(C)c1cc(-c2ccc(C(F)(F)F)cc2C(F)(F)F)nnc1NC[C@@H](C)O [Example 24]
200	C[C@@H](O)CNc1nnc(-c2ccc(C(F)(F)F)cc2C(F)(F)F)cc1C1CC1 [Example 28]
530	CC(=O)N[C@H](C)CNc1ccc(-c2ccc(C(F)(F)F)cc2C(F)(F)F)nn1 [Example 45, N—[(R2R)-1-({6-[2,4-bis(trifluoromethyl)phenyl]pyridazin-3-yl}amino)propan-2-yl]acetoamide]
620	Cc1cc(NC[C@@H](C)O)nnc1-c1c(O)cccc1F [Example 36]
160	Cc1cc(-c2ccc(C(F)(F)F)cc2O)nnc1NC[C@@H](C)O [Example 8, 2-(6-{[(R2R)-2-hydroxypropyl]amino}-5-methylpyridazin-3-yl)-5-(trifluoromethyl)phenol]
2700	Cc1cc(-c2ccc(C(F)(F)F)cc2)nnc1NCCCO [Example 53]
33	CCc1cc(NC[C@@H](C)O)nnc1-c1ccc(C(F)(F)F)cc1O [Example 64]
510	O=C(NCCCCNc1ccc(-c2ccc(C(F)(F)F)cc2C(F)(F)F)nn1)C1CC1 [Example 48]
97	Cc1cc(C)n(-c2cc(-c3ccc(C(F)(F)F)cc3C(F)(F)F)nnc2NC[C@@H](C)O)n1 [Example 15]
120	O=C(NCCCCNc1ccc(-c2ccc(C(F)(F)F)cc2C(F)(F)F)nn1)C(F)F [Example 46, N-[4({6-[2,4-bis(trifluoromethyl)phenyl]pyridazin-3-yl}amino)butyl]-2,2-difluoroacetoamide]
150	CC(=O)NCCCCNc1ccc(-c2ccc(C(F)(F)F)cc2C(F)(F)F)nn1 [Example 11]
1100	OCCCNc1nnc(-c2ccc(C(F)(F)F)cc2)cc1-c1ccco1 [Example 50]

IC50 [nM]	Structure (SMILES)
610	C[C@@H](O)CNc1nnc(-c2ccc(C(F)(F)F)cc2C(F)(F)F)cc1OCCOCc1ccccc1 [Example 19]
120	C[C@@H](O)CNc1nnc(-c2ccc(C(F)(F)F)cc2C(F)(F)F)cc1-n1cccn1 [Example 13]
240	C[C@@H](O)CNc1nnc(-c2ccc(C(F)(F)F)cc2C(F)(F)F)cc1C(=O)N1CCOCC1 [Example 40, (6-[2,4-bis(trifluoromethyl)phenyl]-3-{[(2R)-2-hydroxypropyl]amino}pyridazin-4-yl)(morpholin-4-yl)methanone]
110	Cc1cc(-c2ccc(C(F)(F)F)cc2C(F)(F)F)nnc1N[C@@H]1CCCC[C@H]1O [Example 17]
11	C[C@@H](O)CNc1cc(C2CC2)c(-c2ccc(C(F)(F)F)cc2O)nn1 [Example 32]
990	OCCCNc1cc(-c2ccco2)c(-c2ccc(C(F)(F)F)cc2)nn1 [Example 51]
260	C[C@@H](O)CNc1ccc(-c2ccc(C(F)(F)F)cc2O)nn1 [Example 18]
530	COc1ccc(-c2cc(C)c(NC[C@@H](C)O)nn2)c(C2CC2)c1 [Example 22]
200	C[C@@H](O)CNc1nnc(-c2ccc(C(F)(F)F)cc2C(F)(F)F)cc1C(N)=O [Example 41]
150	C[C@@H](O)CNc1ccc(-c2ccc(C(F)(F)F)cc2C(F)(F)F)nn1 [Example 12]
170	Cc1cc(NC[C@@H](C)O)nnc1-c1cccc(Cl)c1O [Example 33]
26	Cc1c(NC[C@@H](C)CO)nnc(-c2ccc(C(F)(F)F)cc2O)c1C (single isomer, unassigned) [Example 76, 2-(6-{[(R2R)-3-hydroxy-2-methylpropyl]amino}-4,5-dimethylpyridazine-3-yl)-5-(trifluoromethyl)phenol]
270	COc1cccc(-c2nnc(NC[C@@H](C)O)cc2C)c1O [Example 31]
36	Cc1c(NCCCO)nnc(-c2ccc(C(F)(F)F)cc2O)c1C [Example 70, 2-{6-[(3-hydroxypropyl)amino]-4,5-dimethylpyridazine-3-yl}-5-(trifluoromethyl)phenol]
89	Cc1c(NCC(C)CO)nnc(-c2ccc(Cl)cc2O)c1C (centres unmarked) [Example 77]
1500	CC(C)c1cc(NC[C@@H](C)O)nnc1-c1ccc(C(F)(F)F)cc1C(F)(F)F [Example 61]
200	Cc1cc(NC[C@@H](C)O)nnc1-c1ccc(C(F)(F)F)cc1C(F)(F)F [Example 5, (2R)-1-({6-[2,4-bis(trifluoromethyl)phenyl]-5-methylpyridazin-3-yl}amino)propan-2-ol]
190	Cc1cc(NC[C@@H](C)O)nnc1-c1ccc(F)cc1O [Example 27]
120	CCOC(=O)c1cc(-c2ccc(C(F)(F)F)cc2C(F)(F)F)nnc1NC[C@@H](C)O [Example 3, ethyl 6-[2,4-bis(trifluoromethyl)phenyl]-3-{[(2R)-2-hydroxypropyl]amino}pyridazine-4-carboxylate]
43	C[C@@H](O)CNc1cc(C2CC2)c(-c2ccc(Cl)cc2O)nn1 [Example 78]
750	COc1ccc(-c2nnc(NC[C@@H](C)O)cc2C)c(C(F)(F)F)c1 [Example 59]
400	CC(C)C(=O)NCCCCNc1ccc(-c2ccc(C(F)(F)F)cc2C(F)(F)F)nn1 [Example 47]

IC50 [nM]	Structure (SMILES)
570	C[C@@H](O)CNc1nnc(-c2ccc(C(F)(F)F)cc2C(F)(F)F)cc1C(=O)N1CCSCC1 [Example 44]
460	C[C@@H](O)CNc1cc(C2CC2)c(-c2ccc(C(F)(F)F)cc2C(F)(F)F)nn1 [Example 29]
17	Cc1cc(NC[C@@H](C)O)nnc1-c1ccc(C(F)(F)F)cc1O [Example 7, 2-(6-{[(R2R)-2-hydroxypropyl]amino}-4-methylpyridazin-3-yl)-5-(trifluoromethyl)phenol]
18	Cc1c(NC[C@H](C)CO)nnc(-c2ccc(C(F)(F)F)cc2O)c1C [Example 75]
590	C[C@@H](O)CNc1nnc(-c2ccc(C(F)(F)F)cc2O)cc1N(C)C [Example 35]
1500	Cc1c(NC[C@H](C)O)nnc(-c2ccc(C(F)(F)F)cc2C(F)(F)F)c1C [Example 20]
47	Cc1cc(NC[C@@H](C)O)nnc1-c1ccc(Cl)cc1O [Example 66]
330	C[C@@H](O)CNc1nnc(-c2ccc(C(F)(F)F)cc2C(F)(F)F)cc1C(=O)N(C)C [Example 14]
120	Cc1cc(-c2ccc(Cl)cc2C(F)(F)F)nnc1NC[C@@H](C)O [Example 23]
1700	COc1ccc(-c2nnc(NC[C@@H](C)O)cc2C)c(C2CC2)c1 [Example 60]
160	COc1ccc(-c2cc(C)c(NC[C@@H](C)O)nn2)c(C(F)(F)F)c1 [Example 21]
2100	Cc1cc(NC[C@@H](C)O)nnc1-c1cc(F)ccc1O [Example 62]
1500	C[C@@H](O)CNc1nnc(-c2ccc(C(F)(F)F)cc2C(F)(F)F)cc1C(=O)N1CCN(C)CC1 [Example 42, (6-[2,4-bis(trifluoromethyl)phenyl]-3-{[(2R)-2-hydroxypropyl]amino}pyridazine-4-yl)(4-methylpiperazin-1-yl)methanone]
54	CC(C)c1cc(NC[C@@H](C)O)nnc1-c1ccc(C(F)(F)F)cc1O [Example 26]
200	Cc1cc(N[C@@H]2CCCC[C@H]2O)nnc1-c1ccc(C(F)(F)F)cc1C(F)(F)F [Example 16]
860	C[C@@H](O)CNc1nnc(-c2ccc(C(F)(F)F)cc2C(F)(F)F)cc1C(=O)N1CCO[C@@H](C)C1 [Example 43]
5100	C[C@@H](O)CNc1cc(-n2ccnc2)c(-c2ccc(C(F)(F)F)cc2C(F)(F)F)nn1 [Example 55]
680	C[C@@H](O)CNc1nnc(-c2ccc(C(F)(F)F)cc2C(F)(F)F)cc1OC(F)F [Example 49, (2R)-1-({6-[2,4-bis(trifluoromethyl)phenyl]-4-(difluoromethoxy)pyridazin-3-yl}amino)propan-2-ol hydrochloride]
35	CC(=O)NCCCCNc1nnc(-c2ccc(C(F)(F)F)cc2O)c(C)c1C [Example 74]
33	C[C@@H](O)CNc1nnc(-c2ccc(C(F)(F)F)cc2O)cc1C#N [Example 37]
310	Cc1c(NCC(C)(C)O)nnc(-c2ccc(C(F)(F)F)cc2O)c1C [Example 68, 2-{6-[(2-hydroxy-2-methylpropyl)amino]-4,5-dimethylpyridazine-3-yl}-5-(trifluoromethyl)phenol]
